This is an account of results in ChEMBL document CHEMBL1134440, “Discovery of 4-amino-5-(3-bromophenyl)-7-(6-morpholino-pyridin-3-yl)pyrido[2,3-d]pyrimidine, an orally active, non-nucleoside adenosine kinase inhibitor” (J Med Chem, 2001).

The structures appear in SMILES notation. pIC50: −log10 of the molar value. Bounds are passed on as bounds.

Test [1] deals with Adenosine kinase (Homo sapiens, UniProt P55263). Put plainly: Inhibition of adenosine phosphorylation in confluent IMR-32 (human neuroblastoma) cells. Format: functional, cell-based.
Test [2] concerns the target Adenosine kinase (Rattus norvegicus, UniProt Q64640). Kind of test: In vitro inhibition of Adenosine kinase (AK).

Chain of Adenosine kinase (Homo sapiens, UniProt P55263) (P55263 whole entry): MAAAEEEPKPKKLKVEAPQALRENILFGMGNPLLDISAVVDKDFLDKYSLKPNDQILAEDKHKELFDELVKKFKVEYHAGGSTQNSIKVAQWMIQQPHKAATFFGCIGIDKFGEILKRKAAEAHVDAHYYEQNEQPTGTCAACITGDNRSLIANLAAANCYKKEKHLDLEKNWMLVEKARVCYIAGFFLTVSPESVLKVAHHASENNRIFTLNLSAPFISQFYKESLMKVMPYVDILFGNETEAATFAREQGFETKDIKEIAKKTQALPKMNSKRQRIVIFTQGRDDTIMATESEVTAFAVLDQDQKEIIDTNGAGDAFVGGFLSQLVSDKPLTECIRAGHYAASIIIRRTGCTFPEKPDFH
Chain of Adenosine kinase (Rattus norvegicus, UniProt Q64640) (Q64640 whole entry): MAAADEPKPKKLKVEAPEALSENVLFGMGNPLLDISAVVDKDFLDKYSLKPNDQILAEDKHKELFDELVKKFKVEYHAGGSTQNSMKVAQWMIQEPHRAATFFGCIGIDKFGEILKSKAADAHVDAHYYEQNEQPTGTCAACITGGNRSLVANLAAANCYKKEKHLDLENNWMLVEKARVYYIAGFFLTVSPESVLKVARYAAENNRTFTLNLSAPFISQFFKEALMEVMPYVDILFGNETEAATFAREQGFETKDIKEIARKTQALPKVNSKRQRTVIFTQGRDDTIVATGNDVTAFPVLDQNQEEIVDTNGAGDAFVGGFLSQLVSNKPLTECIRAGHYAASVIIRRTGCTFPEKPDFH

As usually defined, the pIC50 is −log10 of the IC50, conventionally taken in molar units. Turning to `CN(C)c1ccc(-c2nc3ncnc(N)c3cc2-c2ccc(C(C)(C)C)cc2)cc1`, the pIC50 was less than 6.00 on Adenosine kinase [1] and 7.20 against Adenosine kinase [2].

In the case of `Nc1ncnc(N[C@@H]2O[C@H](CO)[C@@H](O)[C@H]2O)c1[N+](=O)[O-]`, the pIC50 against Adenosine kinase [1] is 4.59; at Adenosine kinase [2] it was 5.70.

As for `COc1ccc(-c2cc3c(N)ncnc3nc2-c2ccc(N(C)C)cc2)cc1`, the pIC50 against Adenosine kinase [1] was 6.25; against Adenosine kinase [2] it was 7.04.

In the case of `CN(C)c1ccc(-c2cc(-c3ccccc3)c3c(N)ncnc3n2)cc1`, the pIC50 at Adenosine kinase [1] is 6.33.

Turning to `Nc1ccc(-c2cnc3c(N)ncnc3n2)cc1`, the pIC50 against Adenosine kinase [1] was less than 5.00; against Adenosine kinase [2], 5.76.

Turning to `Nc1ncnc2nc(-c3ccc(N4CCOCC4)cc3)cnc12`, the pIC50 against Adenosine kinase [1] was 6.00; at Adenosine kinase [2], 6.40.

Consider `CN(C)c1ccc(-c2cnc3c(N)ncnc3n2)cc1`, for which the pIC50 was 5.44 against Adenosine kinase [1] and 6.36 on Adenosine kinase [2].

`CN(C)c1ccc(-c2ccc3c(N)ncnc3n2)cc1`: the negative-log IC50 (pIC50) is less than 5.00 at Adenosine kinase [1] and 6.11 against Adenosine kinase [2].

For `Cc1ccc(-c2cc3c(N)ncnc3nc2-c2ccc(N(C)C)cc2)cc1`, the pIC50 against Adenosine kinase [1] is 6.30; against Adenosine kinase [2] it was 7.13.

Consider `CN(C)c1ccc(-c2nc3ncnc(N)c3nc2-c2ccccc2)cc1`, for which the pIC50 at Adenosine kinase [1] is 6.48; at Adenosine kinase [2] it was 7.60.

For the molecule `CN(C)c1ccc(-c2cc(C3CCCCC3)c3c(N)ncnc3n2)cc1`, the results for the pIC50 against Adenosine kinase [1] and at Adenosine kinase [2] were 6.33 and 8.08, respectively.

As to `NC[C@H]1O[C@@H](n2cnc3c(N)ncnc32)[C@H](O)[C@@H]1O`, the pIC50 is 5.20 against Adenosine kinase [1] and 7.82 against Adenosine kinase [2].

In the case of `C[C@H]1O[C@@H](n2cc(-c3ccccc3)c3c(Nc4ccc(F)cc4)ncnc32)[C@H](O)[C@@H]1O`, the figures for the pIC50 against Adenosine kinase [1] and on Adenosine kinase [2] were 6.87 and 8.55, respectively.

As for `Nc1ncnc2nc(-c3ccc(N4CCOCC4)nc3)cc(-c3cccc(Br)c3)c12`, the pIC50 on Adenosine kinase [1] is 7.30; at Adenosine kinase [2] it was 8.77.

Consider `CN(C)c1ccc(-c2cc(-c3cccc(Br)c3)c3c(N)ncnc3n2)cn1`, for which the pIC50 is 7.49 against Adenosine kinase [1] and 8.74 against Adenosine kinase [2].

On to `COc1ccc(-c2cnc3c(N)ncnc3n2)cc1`, for which the pIC50 against Adenosine kinase [1] is less than 5.00; against Adenosine kinase [2] it was 5.70.

Turning to `COC(=O)c1cccc(-c2cc3c(N)ncnc3nc2-c2ccc(N(C)C)cc2)c1`, the pIC50 at Adenosine kinase [1] was 6.15; on Adenosine kinase [2] it was 7.18.

For `Nc1ncnc2nc(-c3ccc([N+](=O)[O-])cc3)cnc12`, the pIC50 against Adenosine kinase [1] was less than 5.00; against Adenosine kinase [2], 5.32.

On to `Nc1ncnc2nc(-c3ccccc3)cnc12`, for which the pIC50 is less than 5.00 on Adenosine kinase [1] and 5.26 against Adenosine kinase [2].

The molecule `CN(C)c1ccc(-c2cc(-c3cccc(Br)c3)c3c(N)ncnc3n2)cc1` showed a pIC50 at Adenosine kinase [1] of 6.78.
